Results taken from PubChem BioAssay AID2060489 (Molecular Pharmacology Branch, DTP, NCI, 2025).
pIC50: −log10 of the molar value.

System: 922993-354-T-J3-PDC complex spheroids, viability
Experiment: Anticancer human tumor 922993-354-T-J3-PDC patient-derived endometrial carcinoma cell line growth inhibition [GQUAD]
Details: for pIC50: curve of first compound; for viability, T/C: stronger effect = lower value
Outline: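 Tumor cells were grown as complex spheroids with HUVEC endothelial cells and mesenchymal stem cells as stroma. G-quadruplex stabilizers were combined with targeted agents over half-log dilutions from near the clinical Cmax, or from 10 microM.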

[1] = second compound 0.0316 µM, first compound 0.0316 µM
[2] = second compound 0.0316 µM, first compound 0.1 µM
[3] = second compound 0.0316 µM, first compound 0.316 µM
[4] = second compound 0.0316 µM, first compound 1 µM
[5] = second compound 0.0316 µM, first compound 3.16 µM
[6] = second compound 0.0316 µM, first compound 10 µM
[7] = second compound 0.1 µM, first compound 0.0316 µM
[8] = second compound 0.1 µM, first compound 0.1 µM
[9] = second compound 0.1 µM, first compound 0.316 µM
[10] = second compound 0.1 µM, first compound 1 µM
[11] = second compound 0.1 µM, first compound 3.16 µM
[12] = second compound 0.1 µM, first compound 10 µM
[13] = second compound 0.316 µM, first compound 0.0316 µM
[14] = second compound 0.316 µM, first compound 0.1 µM
[15] = second compound 0.316 µM, first compound 0.316 µM
[16] = second compound 0.316 µM, first compound 1 µM
[17] = second compound 0.316 µM, first compound 3.16 µM
[18] = second compound 0.316 µM, first compound 10 µM
[19] = second compound 1 µM, first compound 0.0316 µM
[20] = second compound 1 µM, first compound 0.1 µM
[21] = second compound 1 µM, first compound 0.316 µM
[22] = second compound 1 µM, first compound 1 µM
[23] = second compound 1 µM, first compound 3.16 µM
[24] = second compound 1 µM, first compound 10 µM
[25] = second compound 3.16 µM, first compound 0.0316 µM
[26] = second compound 3.16 µM, first compound 0.1 µM
[27] = second compound 3.16 µM, first compound 0.316 µM
[28] = second compound 3.16 µM, first compound 1 µM
[29] = second compound 3.16 µM, first compound 3.16 µM
[30] = second compound 3.16 µM, first compound 10 µM
[31] = second compound 10 µM, first compound 0.0316 µM
[32] = second compound 10 µM, first compound 0.1 µM
[33] = second compound 10 µM, first compound 0.316 µM
[34] = second compound 10 µM, first compound 1 µM
[35] = second compound 10 µM, first compound 3.16 µM
[36] = second compound 10 µM, first compound 10 µM
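Note: spheroids exposed to compounds for seven days.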
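Throughout, for viability, T/C: 100% = DMSO vehicle control viability.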

For C#Cc1c(F)ccc2cc(O)cc(-c3ncc4c(N5CC6CCC(C5)N6)nc(OCC56CCCN5CC(F)C6)nc4c3F)c12 (stereo unspecified) + Cc1[nH]c2ccc(F)cc2c1-c1nc2c3cccnc3c3ncccc3c2[nH]1, the pIC50 (second compound 0.0316 µM) was < 5.00, the pIC50 (second compound 0.1 µM) was < 5.00 and the pIC50 (second compound 0.316 µM) was < 5.00. The pIC50 (second compound 1 µM) was < 5.00, the pIC50 (second compound 3.16 µM) was < 5.00 and the pIC50 (second compound 10 µM) was < 5.00. For the same molecule, the viability, T/C [1] was 112%, the viability, T/C [2] was 93.3% and the viability, T/C [3] was 106%. The viability, T/C [4] was 98.2%, the viability, T/C [5] was 96% and the viability, T/C [6] was 80.7%. For the same molecule, the viability, T/C [7] was 103%, the viability, T/C [8] was 98.4% and the viability, T/C [9] was 94.7%. For the same molecule, the viability, T/C [10] was 107%, the viability, T/C [11] was 116% and the viability, T/C [12] was 110%. The viability, T/C [13] was 87%, the viability, T/C [14] was 88.8% and the viability, T/C [15] was 94%. The viability, T/C [16] was 99.2%, the viability, T/C [17] was 87.8% and the viability, T/C [18] was 124%. It also gave a viability, T/C [19] of 83.4%, a viability, T/C [20] of 108% and a viability, T/C [21] of 99.5%. For the same molecule, the viability, T/C [22] was 120%, the viability, T/C [23] was 125% and the viability, T/C [24] was 114%. The viability, T/C [25] was 103%, the viability, T/C [26] was 87.6% and the viability, T/C [27] was 121%. It also gave a viability, T/C [28] of 107%, a viability, T/C [29] of 114% and a viability, T/C [30] of 113%. It also gave a viability, T/C [31] of 91.6%, a viability, T/C [32] of 104% and a viability, T/C [33] of 101%. The viability, T/C [34] was 110%, the viability, T/C [35] was 127% and the viability, T/C [36] was 113%.
With CC(=O)O[C@H]1C(=O)[C@@]2(C)[C@H]([C@H](OC(=O)c3ccccc3)[C@]3(O)C[C@H](OC(=O)[C@H](O)[C@@H](NC(=O)c4ccccc4)c4ccccc4)C(C)=C1C3(C)C)[C@]1(OC(C)=O)CO[C@@H]1C[C@@H]2O + Cc1[nH]c2ccc(F)cc2c1-c1nc2c3cccnc3c3ncccc3c2[nH]1 the pIC50 (second compound 0.0316 µM) was 5.17, the pIC50 (second compound 0.1 µM) was < 5.00 and the pIC50 (second compound 0.316 µM) was < 5.00. The pIC50 (second compound 1 µM) was 5.03, the pIC50 (second compound 3.16 µM) was 5.09 and the pIC50 (second compound 10 µM) was < 5.00. For the same molecule, the viability, T/C [1] was 109%, the viability, T/C [2] was 84.6% and the viability, T/C [3] was 124%. For the same molecule, the viability, T/C [4] was 115%, the viability, T/C [5] was 68.4% and the viability, T/C [6] was 40.5%. The viability, T/C [7] was 124%, the viability, T/C [8] was 87.3% and the viability, T/C [9] was 96.6%. The viability, T/C [10] was 119%, the viability, T/C [11] was 75.7% and the viability, T/C [12] was 49.6%. The viability, T/C [13] was 98.8%, the viability, T/C [14] was 90.4% and the viability, T/C [15] was 136%. For the same molecule, the viability, T/C [16] was 89.2%, the viability, T/C [17] was 88.1% and the viability, T/C [18] was 50.3%. It also gave a viability, T/C [19] of 103%, a viability, T/C [20] of 126% and a viability, T/C [21] of 119%. The viability, T/C [22] was 109%, the viability, T/C [23] was 81.3% and the viability, T/C [24] was 47.8%. The viability, T/C [25] was 104%, the viability, T/C [26] was 115% and the viability, T/C [27] was 124%. For the same molecule, the viability, T/C [28] was 136%, the viability, T/C [29] was 93.6% and the viability, T/C [30] was 40.9%. For the same molecule, the viability, T/C [31] was 97.7%, the viability, T/C [32] was 94% and the viability, T/C [33] was 117%. For the same molecule, the viability, T/C [34] was 105%, the viability, T/C [35] was 86.2% and the viability, T/C [36] was 57.7%.
In the case of CCCS(=O)(=O)Nc1ccc(F)c(C(=O)c2c[nH]c3ncc(-c4ccc(Cl)cc4)cc23)c1F + Cc1[nH]c2ccc(F)cc2c1-c1nc2c3cccnc3c3ncccc3c2[nH]1, the pIC50 (second compound 0.0316 µM) was < 5.00, the pIC50 (second compound 0.1 µM) was < 5.00 and the pIC50 (second compound 0.316 µM) was < 5.00. For the same molecule, the pIC50 (second compound 1 µM) was < 5.00, the pIC50 (second compound 3.16 µM) was < 5.00 and the pIC50 (second compound 10 µM) was < 5.00. For the same molecule, the viability, T/C [1] was 113%, the viability, T/C [2] was 101% and the viability, T/C [3] was 78.5%. For the same molecule, the viability, T/C [4] was 69.4%, the viability, T/C [5] was 77.3% and the viability, T/C [6] was 68.4%. For the same molecule, the viability, T/C [7] was 119%, the viability, T/C [8] was 99.2% and the viability, T/C [9] was 75.7%. For the same molecule, the viability, T/C [10] was 81.2%, the viability, T/C [11] was 76.9% and the viability, T/C [12] was 57.1%. It also gave a viability, T/C [13] of 101%, a viability, T/C [14] of 82.4% and a viability, T/C [15] of 81.5%. The viability, T/C [16] was 77.2%, the viability, T/C [17] was 78.2% and the viability, T/C [18] was 56.2%. It also gave a viability, T/C [19] of 93%, a viability, T/C [20] of 83.5% and a viability, T/C [21] of 61.9%. The viability, T/C [22] was 92.9%, the viability, T/C [23] was 82% and the viability, T/C [24] was 56.7%. For the same molecule, the viability, T/C [25] was 91.2%, the viability, T/C [26] was 98.6% and the viability, T/C [27] was 82.5%. It also gave a viability, T/C [28] of 87.5%, a viability, T/C [29] of 76.4% and a viability, T/C [30] of 60.9%. It also gave a viability, T/C [31] of 96.9%, a viability, T/C [32] of 99.7% and a viability, T/C [33] of 85.4%. It also gave a viability, T/C [34] of 81.4%, a viability, T/C [35] of 76.9% and a viability, T/C [36] of 64%.
